Measurements reported in publication PMC6163054 (Chembiochem : a European journal of chemical biology, 2018).

Biological target: Fluc (firefly luciferase) (Photinus pyralis, UniProt P08659)
Assay: bioluminescence kinetics, luminometer, nonlinear regression
Assay type: biochemical
Details: ATP, Mg2+, pH 7.6; text says low millimolar range

Sequence of Fluc (firefly luciferase) (P08659 whole entry): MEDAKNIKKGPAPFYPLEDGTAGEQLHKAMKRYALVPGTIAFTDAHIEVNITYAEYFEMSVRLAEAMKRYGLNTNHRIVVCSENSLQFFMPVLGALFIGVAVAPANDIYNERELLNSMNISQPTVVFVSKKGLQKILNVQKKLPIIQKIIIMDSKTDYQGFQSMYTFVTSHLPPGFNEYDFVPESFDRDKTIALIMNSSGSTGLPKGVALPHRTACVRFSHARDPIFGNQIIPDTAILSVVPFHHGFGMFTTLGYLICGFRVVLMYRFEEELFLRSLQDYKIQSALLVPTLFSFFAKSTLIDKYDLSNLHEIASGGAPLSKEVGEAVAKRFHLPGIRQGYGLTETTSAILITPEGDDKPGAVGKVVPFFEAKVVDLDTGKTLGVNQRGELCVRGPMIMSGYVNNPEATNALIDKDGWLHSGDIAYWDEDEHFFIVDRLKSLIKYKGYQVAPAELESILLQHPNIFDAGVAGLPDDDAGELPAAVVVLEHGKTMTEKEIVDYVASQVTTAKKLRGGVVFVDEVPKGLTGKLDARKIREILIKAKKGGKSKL

Row | Compound | apparent Km
1 | O=C(O)[C@H]1CSC(c2nc3c[nH]c(=O)cc3s2)=N1 [compound 3, (S)-2-(Thiazolo[4,5-c]pyridin-6(5H)-one-2-yl)-4,5-dihydrothiazole-4-carboxylic acid] | The apparent Km values measured for both luciferins were in the low millimolar range
2 | O=C(O)[C@H]1CSC(c2nc3ccc(=O)[nH]c3s2)=N1 [compound 4, (S)-2-(Thiazolo[5,4-b]pyridin-5(4H)-one-2-yl)-4,5-dihydrothiazole-4-carboxylic acid] | The apparent Km values measured for both luciferins were in the low millimolar range
